Drawing on patent US9216182B2, “Carbamate/urea derivatives containing piperidin and piperazin rings as H3 receptor inhibitors” (Novartis AG, priority 2011, dated 2015), this text covers melting point for one compound.

Broadly, the melting point is the temperature of the solid-liquid transition. Turning to `CC(C)N1CCN(C(=O)OC2CCN(c3ccc(C(N)=O)cn3)CC2)CC1` [Example 1.1, 1-(5-carbamoylpyridin-2-yl)piperidin-4-yl 4-isopropylpiperazine-1-carboxylate], the melting point fell in the range of 200.1 to 203.6 °C.
